Source: publication PMC7036753, “Lipidated Analogs of the LL-37-Derived Peptide Fragment KR12—Structural Analysis, Surface-Active Properties and Antimicrobial Activity” (International Journal of Molecular Sciences, 2020)
In brackets after ≈: the same amount, converted by molar mass. Peptide text beside a SMILES is read from it. * marks the point of attachment. Lauroyl = CCCCCCCCCCCC(=O)*; Decanoyl = CCCCCCCCCC(=O)*; Hexanoyl = CCCCCC(=O)*; Butyryl = CCCC(=O)*

Columns and labels:
E. faecium ATCC 700221 = type: cell-based, Enterococcus faecium; conditions: ATCC 700221, 18 h
Method: (§1) Examination of antimicrobial activity of the test compounds was conducted on reference strains of bacteria assigned to ESKAPE group of pathogens: Enterococcus faecium ATCC 700221, Klebsiella pneumoniae ATCC 700603, Acinetobacter baumannii ATCC BAA-1605, Pseudomonas aeruginosa ATCC 9027, Klebsiella aerogenes ATCC 13048 (formerly Enterobacter aerogenes) and reference strains of Staphylococcus aureus, namely: S. aureus ATCC 25923, S. aureus ATCC 6538, S. aureus ATCC 33591 (MRSA), S. aureus ATCC 9144 and S. aureus ATCC 12598. All the strains were stored at −80 °C in Roti®-Store cryo vials (Carl Roth GmbH, Karlsruhe, Germany) and before the tests were transferred into fresh Mueller-Hinton Medium (BioMaxima, Lublin, Poland) and incubated for 24 h at 37 °C. Subsequently, each bacterial inoculum was seeded on Mueller-Hinton Agar plates (BioMaxima) and incubated again for 24 h. The cultures prepared in this way were used in further antimicrobial assays and prepared as described above. The MIC values were determined by the broth microdilution method according to Clinical and Laboratory Standards Institute Protocol. For this purpose, initial inoculums of bacteria (0.5 × 10^5 colony forming unit (CFU)/mL) in Mueller–Hinton Broth were exposed to the ranging concentrations of compounds (0.5–256 µg/mL) and incubated for 18 h at 37 °C. The experiments were conducted on 96-well microtiter plates, with a final volume of 100 µL. Cell densities were adjusted spectrophotometrically (Multiskan™ GO Microplate Spectrophotometer, Thermo Scientific) at 600 nm. The MICs were taken as the lowest drug concentration at which a visible growth of microorganisms was inhibited. All experiments were conducted in triplicate and included positive (growth) and negative (sterility) controls.

[1] = tested on: K. pneumoniae ATCC 700603; type: cell-based, Klebsiella pneumoniae; conditions: ATCC 700603, 18 h
Method: as §1

[2] = tested on: A. baumannii ATCC BAA-1605; type: cell-based, Acinetobacter baumannii; conditions: ATCC BAA-1605, 18 h
Method: as §1

P. aeruginosa ATCC 9027 = type: cell-based, Pseudomonas aeruginosa; conditions: ATCC 9027, 18 h
Method: as §1

K. aerogenes ATCC 13048 = type: cell-based, Klebsiella aerogenes; conditions: ATCC 13048, 18 h
Method: as §1

S. aureus ATCC 12598 = type: cell-based, Staphylococcus aureus; conditions: ATCC 12598, 18 h
Method: as §1

S. aureus ATCC 25923 = type: cell-based, Staphylococcus aureus; conditions: ATCC 25923, 18 h
Method: as §1

[3] = tested on: S. aureus ATCC 33591 (MRSA); type: cell-based, Staphylococcus aureus; conditions: ATCC 33591, 18 h
Method: as §1

S. aureus ATCC 6538 = type: cell-based, Staphylococcus aureus; conditions: ATCC 6538, 18 h
Method: as §1

S. aureus ATCC 9144 = type: cell-based, Staphylococcus aureus; conditions: ATCC 9144, 18 h
Method: as §1

[4] = tested on: S. aureus ATCC 12598 biofilm; type: cell-based, Staphylococcus aureus; conditions: ATCC 12598, 24 h
Method: (§2) The MBECs values were determined according to the method reported previously. Briefly, 24-h cultures of S. aureus, namely: S. aureus ATCC 25923, S. aureus ATCC 6538, S. aureus ATCC 33591 (MRSA), S. aureus ATCC 9144 and S. aureus ATCC 12598 were diluted to a concentration of 0.5 × 10^7 CFU/mL and added to the test wells of polystyrene microdilution flat-bottom plates. After 24-h of incubation at 37 °C, the wells were rinsed three times with PBS to remove non-adherent cells. Subsequently, 100 μL of the test compounds over a concentration range 0.5–256 µg/mL were added to each well and incubated again for 24 h at 37 °C. After this period, 20 μL of the resazurin (7-hydroxy-3H-phenoxazin-3-one-10-oxide, 4 mg/mL) solution was added to each well. After 1 h of incubation, the MBECs were read out. The determined values were recorded as the lowest concentration at which the reduction of resazurin (from blue to pink) was lower or equal to 10 ± 0.5% as compared to the positive (100%) and negative (0%) controls. All experiments were performed in triplicate.

[5] = tested on: S. aureus ATCC 25923 biofilm; type: cell-based, Staphylococcus aureus; conditions: ATCC 25923, 24 h
Method: as §2

[6] = tested on: S. aureus ATCC 33591 (MRSA) biofilm; type: cell-based, Staphylococcus aureus; conditions: ATCC 33591, 24 h
Method: as §2

[7] = tested on: S. aureus ATCC 6538 biofilm; type: cell-based, Staphylococcus aureus; conditions: ATCC 6538, 24 h
Method: as §2

[8] = tested on: S. aureus ATCC 9144 biofilm; type: cell-based, Staphylococcus aureus; conditions: ATCC 9144, 24 h
Method: as §2

[9] = tested on: human keratinocytes (HaCaT); type: cell-based; conditions: 24 h
Method: The cytotoxicity of test compounds (IC50) was evaluated for human keratinocytes (HaCaT, ATCC) using classic MTT assay on 96-well plates. In this assay, a colorimetric determination of the cell metabolic activity was carried out. Specifically, the color intensity reflects the number of live cells that can be measured spectrophotometrically. […] A day after plating 500 cells per well, a series of concentrations (0.5–500 μg/mL) of the test compounds were added. Dimethyl sulfoxide (DMSO) was used as a control in cells at a final concentration of 1.0% (v/v), which was related to the maximal concentration of the solvent compounds used in the experiment. After 24 h of incubation with test compounds, a medium containing 1 mg/mL of MTT was added up to a final concentration of 0.5 mg/mL and subsequently incubated at 37 °C for 4 h. Then, the medium was aspirated and the formazan product was solubilized with DMSO. The background absorbance at 630 nm was subtracted from that at 570 nm for each well (Epoch, BioTek Instruments, Winooski, VT, USA). Six replicates were conducted for each concentration. All experiments were repeated at least twice and the resulting IC50 values were calculated with a GraFit 7 software (v. 7.0, Erithacus, Berkley, CA, USA).

[10] = tested on: reference strains of S. aureus; type: cell-based, Staphylococcus aureus; conditions: reference strains of, 24 h
Method: as §1, with “For this purpose, initial inoculums of bacteria (0.5 × 10^5 colony forming unit (CFU)/mL) in Mueller–Hinton Broth were exposed to the ranging concentrations of compounds (0.5–256 µg/mL) and incubated for 18 h at 37 °C.” left out

MIC (E. faecium ATCC 700221)	MIC [1]	MIC [2]	MIC (P. aeruginosa ATCC 9027)	MIC (K. aerogenes ATCC 13048)	MIC (S. aureus ATCC 12598)	MIC (S. aureus ATCC 25923)	MIC [3]	MIC (S. aureus ATCC 6538)	MIC (S. aureus ATCC 9144)	GM (geometric mean of the MIC values against S. aureus) [10]	SMILES	MBEC [4]	MBEC [5]	MBEC [6]	MBEC [7]	MBEC [8]	IC50 [9]
4 µg/mL (≈ 2.44 µM)	128 µg/mL (≈ 78 µM)	>256 µg/mL	32 µg/mL (≈ 19.5 µM)	128 µg/mL (≈ 78 µM)	64 µg/mL (≈ 39 µM)	128 µg/mL (≈ 78 µM)	128 µg/mL (≈ 78 µM)	32 µg/mL (≈ 19.5 µM)	64 µg/mL (≈ 39 µM)	73.52 µg/mL	CCCC(=O)N[C@@H](CCCCN)C(=O)N[C@@H](CCCNC(=N)N)C(=O)N[C@H](C(=O)N[C@H](C(=O)N[C@@H](CCC(N)=O)C(=O)N[C@@H](CCCNC(=N)N)C(=O)N[C@H](C(=O)N[C@@H](CCCCN)C(=O)N[C@@H](CC(=O)O)C(=O)N[C@@H](Cc1ccccc1)C(=O)N[C@@H](CC(C)C)C(=O)N[C@@H](CCCNC(=N)N)C(N)=O)[C@@H](C)CC)C(C)C)[C@@H](C)CC [II, C4-KR12-NH2] (Butyryl-KRIVQRIKDFLR-NH2)	128 µg/mL	256 µg/mL	128 µg/mL	128 µg/mL	128 µg/mL	38.73 µg/mL (≈ 23.6 µM)
2 µg/mL (≈ 1.2 µM)	16 µg/mL (≈ 9.59 µM)	16 µg/mL (≈ 9.59 µM)	8 µg/mL (≈ 4.79 µM)	16 µg/mL (≈ 9.59 µM)	8 µg/mL (≈ 4.79 µM)	16 µg/mL (≈ 9.59 µM)	16 µg/mL (≈ 9.59 µM)	4 µg/mL (≈ 2.4 µM)	8 µg/mL (≈ 4.79 µM)	9.19 µg/mL	CCCCCC(=O)N[C@@H](CCCCN)C(=O)N[C@@H](CCCNC(=N)N)C(=O)N[C@H](C(=O)N[C@H](C(=O)N[C@@H](CCC(N)=O)C(=O)N[C@@H](CCCNC(=N)N)C(=O)N[C@H](C(=O)N[C@@H](CCCCN)C(=O)N[C@@H](CC(=O)O)C(=O)N[C@@H](Cc1ccccc1)C(=O)N[C@@H](CC(C)C)C(=O)N[C@@H](CCCNC(=N)N)C(N)=O)[C@@H](C)CC)C(C)C)[C@@H](C)CC [III, C6-KR12-NH2] (Hexanoyl-KRIVQRIKDFLR-NH2)	16 µg/mL	32 µg/mL	16 µg/mL	16 µg/mL	16 µg/mL	10.13 µg/mL (≈ 6.07 µM)
2 µg/mL (≈ 1.16 µM)	16 µg/mL (≈ 9.27 µM)	8 µg/mL (≈ 4.64 µM)	8 µg/mL (≈ 4.64 µM)	16 µg/mL (≈ 9.27 µM)	4 µg/mL (≈ 2.32 µM)	4 µg/mL (≈ 2.32 µM)	4 µg/mL (≈ 2.32 µM)	4 µg/mL (≈ 2.32 µM)	4 µg/mL (≈ 2.32 µM)	4.00 µg/mL	CCCCCCCCCC(=O)N[C@@H](CCCCN)C(=O)N[C@@H](CCCNC(=N)N)C(=O)N[C@H](C(=O)N[C@H](C(=O)N[C@@H](CCC(N)=O)C(=O)N[C@@H](CCCNC(=N)N)C(=O)N[C@H](C(=O)N[C@@H](CCCCN)C(=O)N[C@@H](CC(=O)O)C(=O)N[C@@H](Cc1ccccc1)C(=O)N[C@@H](CC(C)C)C(=O)N[C@@H](CCCNC(=N)N)C(N)=O)[C@@H](C)CC)C(C)C)[C@@H](C)CC [V, C10-KR12-NH2] (Decanoyl-KRIVQRIKDFLR-NH2)	8 µg/mL	32 µg/mL	32 µg/mL	32 µg/mL	16 µg/mL	5.97 µg/mL (≈ 3.46 µM)
4 µg/mL (≈ 2.28 µM)	32 µg/mL (≈ 18.3 µM)	16 µg/mL (≈ 9.13 µM)	32 µg/mL (≈ 18.3 µM)	32 µg/mL (≈ 18.3 µM)	32 µg/mL (≈ 18.3 µM)	32 µg/mL (≈ 18.3 µM)	16 µg/mL (≈ 9.13 µM)	32 µg/mL (≈ 18.3 µM)	32 µg/mL (≈ 18.3 µM)	27.86 µg/mL	CCCCCCCCCCCC(=O)N[C@@H](CCCCN)C(=O)N[C@@H](CCCNC(=N)N)C(=O)N[C@H](C(=O)N[C@H](C(=O)N[C@@H](CCC(N)=O)C(=O)N[C@@H](CCCNC(=N)N)C(=O)N[C@H](C(=O)N[C@@H](CCCCN)C(=O)N[C@@H](CC(=O)O)C(=O)N[C@@H](Cc1ccccc1)C(=O)N[C@@H](CC(C)C)C(=O)N[C@@H](CCCNC(=N)N)C(N)=O)[C@@H](C)CC)C(C)C)[C@@H](C)CC [VI, C12-KR12-NH2] (Lauroyl-KRIVQRIKDFLR-NH2)	32 µg/mL	256 µg/mL	128 µg/mL	256 µg/mL	64 µg/mL	7.60 µg/mL (≈ 4.33 µM)
